Earlier results as cited in patent US20150230971A1, “MULTIPURPOSE DRUG DELIVERY SYSTEMS FOR LONG-TERM IMPLANTATION OR INSERTION” (PAT&CO BVBA, priority 2012, published 2015).

Tested on: rats and mice
Details: carcinomas and/or precursor lesions of oral cavity, lips, tongue, esophagus, forestomach

In the case of `C=COC(C)=O` [VAM, vinyl acetate monomer], the carcinogenicity is given as “increase in total malignant tumors”.
